According to article PMC13242511, “Disrupting Notch signalling by a small molecule inhibiting dihydroorotate dehydrogenase activity” (Scientific Reports, 2026):

Columns and labels:
Format in all cases: cell-based
Notch signalling [1] = assay: Notch reporter assay (12xCSL firefly luciferase / renilla luciferase, HEK293T Notch1ΔE reporter cell line clone #A1-11); settings: 24 h, unit from Fig. 2 legend
γ-secretase complex = γ-secretase complex (Homo sapiens, UniProt P49768); assay: APP-C99 counter assay (GSI reporter assay); settings: for 3p-DR in % of DMSO counter: APP-C99 counter assay
Method in brief: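 Cells transfected with APP-C99 firefly luciferase reporter plus renilla normalization plasmid, seeded 24 h later onto compound plates and cultured 24 h. Dual luciferase read in triplicate per concentration; IC50 from variable-slope log(inhibitor) fit, with AUC also calculated from dose–response curves.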

Notch signalling [2] = assay: Notch reporter assay (12xCSL firefly luciferase / renilla luciferase, HEK293T Notch1ΔE reporter cell line clone #A1-11); design: Confirmation screen: unit not given here; settings: for inhibitor ratio in % of DMSO in 3 point DR: 3-point DR confirmation screen, Notch reporter assay
Method in brief: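 Compounds at two-fold concentration in 10 µl medium were brought to one-fold by adding 10 µl holding 4000 Notch reporter cells (clone #A1-11) per well of a 384-well plate. After 24 h, Promega dual-GLO firefly and renilla luciferase were read on a SpectraMaxi3. Dose-response curves were fitted with a log(inhibitor) vs. response variable-slope model.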

[3] = 10 µM, sheet conf vs counter 10 µM
[4] = 25 µM, sheet "conf vs counter 25 µM", same values given as % of DMSO in sheet "3p-DR in % of DMSO counter"
[5] = 10 µM, sheet conf vs counter 10 µM, same values as 3-point DR confirmation screen
[6] = 25 µM, Notch reporter 3-point dose-confirmation assay, sheet "conf vs counter 25 µM"

| Structure (SMILES) | 3p-DR in % of DMSO counter (γ-secretase complex; 10µM) | Counter screen (Hek APP-C99) (γ-secretase complex; [3]) | 3p-DR in % of DMSO counter (γ-secretase complex; 25µM) | Counter screen (Hek APP-C99) (γ-secretase complex; [4]) | 3p-DR in % of DMSO counter (γ-secretase complex; 1,25µM) | Primary screen at 10 µM (Notch reporter signal) (Notch signalling [1]) | inhibitor ratio in % of DMSO in 3 point DR (Notch signalling [2]; 10µM) | Confirmation screen (Notch signalling [2]; [5]) | inhibitor ratio in % of DMSO in 3 point DR (Notch signalling [2]; 25µM) | Confirmation screen (Notch signalling [2]; [6]) | inhibitor ratio in % of DMSO in 3 point DR (Notch signalling [2]; 1,25µM) |
| --- | --- | --- | --- | --- | --- | --- | --- | --- | --- | --- | --- |
| FC(F)(F)CCN1CCC2(CC1)NCCc1c2[nH]c2ccc(Cl)cc12 [CBK039331] | 111.0 % of DMSO | 111.0 | 121.8 % of DMSO | 121.7 | 81.3 % of DMSO | 64.3 % of DMSO | 79.3 % of DMSO | 79.3 | 73.3 % of DMSO | 73.3 | 98.4 % of DMSO |
| Fc1cc(CN2CCC3(CC2)OCCc2c3[nH]c3ccc(Br)cc23)cc(F)c1F [CBK039943] | 118.1 % of DMSO | 118.1 | 117.4 % of DMSO | 117.4 | 92.8 % of DMSO | 63.6 % of DMSO | 83.6 % of DMSO | 83.6 | 75.1 % of DMSO | 75.1 | 111.8 % of DMSO |
| COc1cc(Nc2cc(-c3ccccc3N(C)C)ncn2)cc(OC)c1OC [CBK090702] | 148.1 % of DMSO | 148.1 | 225.5 % of DMSO | 225.5 | 124.5 % of DMSO | 68.4 % of DMSO | 85.7 % of DMSO | 85.7 | 55.7 % of DMSO | 55.7 | 97.2 % of DMSO |

The next lines start with results.

| 3p-DR in % of DMSO counter (γ-secretase complex; 10µM) | Counter screen (Hek APP-C99) (γ-secretase complex; [3]) | 3p-DR in % of DMSO counter (γ-secretase complex; 25µM) | Counter screen (Hek APP-C99) (γ-secretase complex; [4]) | 3p-DR in % of DMSO counter (γ-secretase complex; 1,25µM) | Structure (SMILES) | Primary screen at 10 µM (Notch reporter signal) (Notch signalling [1]) | inhibitor ratio in % of DMSO in 3 point DR (Notch signalling [2]; 10µM) | Confirmation screen (Notch signalling [2]; [5]) | inhibitor ratio in % of DMSO in 3 point DR (Notch signalling [2]; 25µM) | Confirmation screen (Notch signalling [2]; [6]) | inhibitor ratio in % of DMSO in 3 point DR (Notch signalling [2]; 1,25µM) |
| --- | --- | --- | --- | --- | --- | --- | --- | --- | --- | --- | --- |
| 40.4 % of DMSO | 40.4 | 38.9 % of DMSO | 38.9 | 49.9 % of DMSO | CC(=O)Nc1cccc(-c2ccc(Nc3cccc(N(C)C)c3)nc2)c1 [CBK036829] | 22.4 % of DMSO | 28.3 % of DMSO | 28.3 | 23.9 % of DMSO | 23.9 | 30.6 % of DMSO |
| 45.0 % of DMSO | 45.0 | 59.5 % of DMSO | 59.5 | 53.8 % of DMSO | CCC(C)(C)c1ccc(S(=O)(=O)Nc2ccc3ncsc3c2)cc1 [CBK043490] | 46.9 % of DMSO | 33.5 % of DMSO | 33.5 | 42.6 % of DMSO | 42.6 | 42.1 % of DMSO |
| 124.1 % of DMSO | 124.1 | 120.8 % of DMSO | 120.8 | 122.5 % of DMSO | CCCC(=O)c1ccc(S(=O)(=O)N2CCN(Cc3csc(-c4ccccc4)n3)CC2)cc1 [CBK063161] | 68.2 % of DMSO | 67.2 % of DMSO | 67.2 | 76.4 % of DMSO | 76.4 | 102.6 % of DMSO |
| 34.9 % of DMSO | 34.9 | 11.6 % of DMSO | 11.6 | 115.4 % of DMSO | Nc1ccc(Sc2nccnc2N2CCCC2)cc1 [CBK089520] | 43.1 % of DMSO | 42.1 % of DMSO | 42.1 | 27.1 % of DMSO | 27.1 | 103.0 % of DMSO |
